Laboratory results reported in the supplement of paper PMC10307832.

Assays:
Assay in all cases: relative viability (nuclei count vs DMSO), 5 days (fraction); higher = more cells survive
KN-93 + Trametinib = compound: CN(C/C=C/C1=CC=C(C=C1)Cl)CC2=CC=CC=C2N(CCO)S(=O)(=O)C3=CC=C(C=C3)OC [KN-93] + CC(=O)Nc1cccc(-n2c(=O)n(C3CC3)c(=O)c3c(Nc4ccc(I)cc4F)n(C)c(=O)c(C)c32)c1 [Trametinib] (partner 0.02 µM)
Summary of the method: (§1)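 Lung cancer cell lines in 1536-well plates got either a single drug or a fixed anchor-drug dose together with five library-drug doses (not always all listed) in √10 steps, by pin tool, on the day after seeding. Nuclei were counted after 5 days, and relative viability is the treated-to-vehicle ratio of nuclei counts. Values are medians of duplicate plates.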

KN-93 + AZD7762 = compound: CN(C/C=C/C1=CC=C(C=C1)Cl)CC2=CC=CC=C2N(CCO)S(=O)(=O)C3=CC=C(C=C3)OC [KN-93] + NC(=O)Nc1cc(-c2cccc(F)c2)sc1C(=O)N[C@H]1CCCNC1 [AZD7762] (partner 0.2 µM)
Summary of the method: as §1

KN-93 + Crizotinib = compound: CN(C/C=C/C1=CC=C(C=C1)Cl)CC2=CC=CC=C2N(CCO)S(=O)(=O)C3=CC=C(C=C3)OC [KN-93] + C[C@@H](Oc1cc(-c2cnn(C3CCNCC3)c2)cnc1N)c1c(Cl)ccc(F)c1Cl [Crizotinib] (partner 1 µM)
Summary of the method: as §1

KN-93 + Olaparib = compound: CN(C/C=C/C1=CC=C(C=C1)Cl)CC2=CC=CC=C2N(CCO)S(=O)(=O)C3=CC=C(C=C3)OC [KN-93] + O=C(c1cc(Cc2n[nH]c(=O)c3ccccc23)ccc1F)N1CCN(C(=O)C2CC2)CC1 [Olaparib] (partner 8 µM)
Summary of the method: as §1

KN-93 + Pictilisib = compound: CN(C/C=C/C1=CC=C(C=C1)Cl)CC2=CC=CC=C2N(CCO)S(=O)(=O)C3=CC=C(C=C3)OC [KN-93] + CS(=O)(=O)N1CCN(Cc2cc3nc(-c4cccc5[nH]ncc45)nc(N4CCOCC4)c3s2)CC1 [Pictilisib] (partner 1 µM)
Summary of the method: as §1

| Cell Line | relative viability (KN-93 + Trametinib; first compound 0.08 µM) | relative viability (KN-93 + Trametinib; first compound 0.253 µM) | relative viability (KN-93 + Trametinib; first compound 2.53 µM) | relative viability (KN-93 + Trametinib; first compound 8 µM) | relative viability (KN-93 + AZD7762; first compound 0.08 µM) | relative viability (KN-93 + AZD7762; first compound 0.253 µM) | relative viability (KN-93 + AZD7762; first compound 2.53 µM) | relative viability (KN-93 + AZD7762; first compound 8 µM) | relative viability (KN-93 + Crizotinib; first compound 0.08 µM) | relative viability (KN-93 + Crizotinib; first compound 0.253 µM) | relative viability (KN-93 + Crizotinib; first compound 2.53 µM) | relative viability (KN-93 + Crizotinib; first compound 8 µM) | relative viability (KN-93 + Olaparib; first compound 0.08 µM) | relative viability (KN-93 + Olaparib; first compound 0.253 µM) | relative viability (KN-93 + Olaparib; first compound 2.53 µM) | relative viability (KN-93 + Olaparib; first compound 8 µM) | relative viability (KN-93 + Pictilisib; first compound 0.253 µM) | relative viability (KN-93 + Pictilisib; first compound 2.53 µM) | relative viability (KN-93 + Pictilisib; first compound 8 µM) | relative viability (KN-93 + Pictilisib; first compound 0.08 µM) |
| --- | --- | --- | --- | --- | --- | --- | --- | --- | --- | --- | --- | --- | --- | --- | --- | --- | --- | --- | --- | --- |
| PC-14 | 0.553 | 0.802 | 0.696 | 0.524 | 0.331 | 0.316 | 0.527 | 0.343 | 0.89 | 0.842 | 0.953 | 0.585 | 0.252 | 0.195 | 0.252 | 0.218 | 0.531 | 0.618 | 0.349 |  |
| HCC-44 | 1.14 | 0.954 | 1.04 | 0.83 | 1.02 | 0.904 | 1.04 | 0.944 | 0.732 | 0.785 | 0.858 | 0.502 | 0.935 | 0.959 | 0.994 | 0.88 | 0.569 | 0.503 | 0.398 | 0.728 |
| NCI-H2347 | 0.28 | 0.316 | 0.282 | 0.26 | 0.621 | 0.861 | 0.885 | 0.498 | 0.686 | 0.731 | 0.739 | 0.463 | 0.491 | 0.59 | 0.606 | 0.497 | 0.616 | 0.696 | 0.543 | 0.572 |
| CAL-12T | 0.345 | 0.35 | 0.289 | 0.28 | 0.56 | 0.628 | 0.667 | 0.399 | 0.623 | 0.834 | 0.531 | 0.339 | 0.772 | 0.777 | 0.788 | 0.641 | 0.367 | 0.605 | 0.326 | 0.498 |
| PC-3 [JPC-3] | 0.703 | 0.533 | 0.674 | 0.608 | 0.813 | 0.757 | 0.781 | 0.714 | 0.953 | 1.2 | 1.06 | 0.886 | 0.929 | 1.06 | 1.23 | 0.956 | 0.708 | 0.759 | 0.645 | 0.727 |
| LOU-NH91 | 0.789 | 0.677 | 0.822 | 0.716 | 0.731 | 0.659 | 0.802 | 0.623 | 0.746 | 0.716 | 0.75 | 0.703 | 0.901 | 0.809 | 0.976 | 0.847 | 0.422 | 0.568 | 0.489 | 0.513 |
| BEN | 1.08 | 1.19 | 1.18 | 0.67 | 0.771 | 0.661 | 0.678 | 0.442 |  | 1.13 | 1.02 | 0.67 | 1.13 | 1.19 | 1.06 | 0.713 | 0.549 | 0.618 | 0.381 |  |
| NCI-H2405 | 0.603 | 0.598 | 0.665 | 0.491 | 0.735 | 0.859 | 0.806 | 0.555 | 0.853 | 0.832 | 0.873 | 0.665 | 0.937 | 0.798 | 0.916 | 0.693 | 0.319 | 0.446 | 0.305 | 0.407 |
